Test results published in patent US20090304692A1, “TRIAZINE COMPOUNDS AS PI3 KINASE AND MTOR INHIBITORS” (Wyeth, priority 2008, published 2009).
Values joined by “and” are separate entries in the source; they are usually repeats but may differ in a detail not shown here. Equal values may be shown once. Read-outs that look alike come from different tables or passages of the source.

Experiments:
PI3K-γ = PI3K-γ (Homo sapiens, UniProt P48736); assay: PI3K-gamma fluorescence polarization assay
PI3K-α = PI3K-α (Homo sapiens, UniProt P42336); assay: PI3K-alpha fluorescence polarization assay
Human mTOR (FLAG-TOR) = Human mTOR (FLAG-TOR) (Homo sapiens, UniProt P42345); assay: mTOR kinase assay (DELFIA format, purified enzyme); type: biochemical; details: read-out: IC50 mTOR
Human mTOR (FLAG-TOR), sequence (P42345 1360-2549 limits assumed): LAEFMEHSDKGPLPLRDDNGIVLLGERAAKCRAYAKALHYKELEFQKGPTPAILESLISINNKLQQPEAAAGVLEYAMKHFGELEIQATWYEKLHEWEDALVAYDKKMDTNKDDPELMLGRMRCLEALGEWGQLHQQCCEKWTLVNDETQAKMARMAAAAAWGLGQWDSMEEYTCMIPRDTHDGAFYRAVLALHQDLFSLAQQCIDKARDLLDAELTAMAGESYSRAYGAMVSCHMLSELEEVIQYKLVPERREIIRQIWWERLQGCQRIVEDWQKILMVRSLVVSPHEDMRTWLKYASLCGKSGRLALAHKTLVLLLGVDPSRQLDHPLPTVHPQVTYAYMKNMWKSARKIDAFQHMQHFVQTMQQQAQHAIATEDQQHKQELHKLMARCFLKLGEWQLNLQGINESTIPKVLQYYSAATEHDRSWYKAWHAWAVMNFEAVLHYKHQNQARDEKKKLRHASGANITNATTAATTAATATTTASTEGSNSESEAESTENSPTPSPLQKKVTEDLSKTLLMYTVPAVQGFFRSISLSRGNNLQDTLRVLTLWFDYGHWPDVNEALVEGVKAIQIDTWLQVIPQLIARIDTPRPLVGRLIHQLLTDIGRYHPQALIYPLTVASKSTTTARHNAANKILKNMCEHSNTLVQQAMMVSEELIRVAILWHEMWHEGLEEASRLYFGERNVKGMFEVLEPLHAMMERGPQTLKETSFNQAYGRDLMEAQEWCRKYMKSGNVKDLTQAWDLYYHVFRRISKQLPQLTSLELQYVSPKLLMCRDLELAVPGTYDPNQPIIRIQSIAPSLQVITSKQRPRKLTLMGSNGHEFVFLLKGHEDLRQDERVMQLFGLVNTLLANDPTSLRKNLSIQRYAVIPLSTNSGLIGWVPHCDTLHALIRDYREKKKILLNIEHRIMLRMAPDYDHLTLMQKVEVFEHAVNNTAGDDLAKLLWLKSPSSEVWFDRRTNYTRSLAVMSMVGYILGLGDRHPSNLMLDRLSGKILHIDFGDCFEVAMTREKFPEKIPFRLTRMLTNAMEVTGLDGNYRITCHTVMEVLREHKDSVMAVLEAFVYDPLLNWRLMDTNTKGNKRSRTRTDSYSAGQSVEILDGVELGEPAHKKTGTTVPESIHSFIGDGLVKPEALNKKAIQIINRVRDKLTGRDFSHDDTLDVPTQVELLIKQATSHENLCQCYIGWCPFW

PI3K-α, sequence (P42336 whole entry, species assumed): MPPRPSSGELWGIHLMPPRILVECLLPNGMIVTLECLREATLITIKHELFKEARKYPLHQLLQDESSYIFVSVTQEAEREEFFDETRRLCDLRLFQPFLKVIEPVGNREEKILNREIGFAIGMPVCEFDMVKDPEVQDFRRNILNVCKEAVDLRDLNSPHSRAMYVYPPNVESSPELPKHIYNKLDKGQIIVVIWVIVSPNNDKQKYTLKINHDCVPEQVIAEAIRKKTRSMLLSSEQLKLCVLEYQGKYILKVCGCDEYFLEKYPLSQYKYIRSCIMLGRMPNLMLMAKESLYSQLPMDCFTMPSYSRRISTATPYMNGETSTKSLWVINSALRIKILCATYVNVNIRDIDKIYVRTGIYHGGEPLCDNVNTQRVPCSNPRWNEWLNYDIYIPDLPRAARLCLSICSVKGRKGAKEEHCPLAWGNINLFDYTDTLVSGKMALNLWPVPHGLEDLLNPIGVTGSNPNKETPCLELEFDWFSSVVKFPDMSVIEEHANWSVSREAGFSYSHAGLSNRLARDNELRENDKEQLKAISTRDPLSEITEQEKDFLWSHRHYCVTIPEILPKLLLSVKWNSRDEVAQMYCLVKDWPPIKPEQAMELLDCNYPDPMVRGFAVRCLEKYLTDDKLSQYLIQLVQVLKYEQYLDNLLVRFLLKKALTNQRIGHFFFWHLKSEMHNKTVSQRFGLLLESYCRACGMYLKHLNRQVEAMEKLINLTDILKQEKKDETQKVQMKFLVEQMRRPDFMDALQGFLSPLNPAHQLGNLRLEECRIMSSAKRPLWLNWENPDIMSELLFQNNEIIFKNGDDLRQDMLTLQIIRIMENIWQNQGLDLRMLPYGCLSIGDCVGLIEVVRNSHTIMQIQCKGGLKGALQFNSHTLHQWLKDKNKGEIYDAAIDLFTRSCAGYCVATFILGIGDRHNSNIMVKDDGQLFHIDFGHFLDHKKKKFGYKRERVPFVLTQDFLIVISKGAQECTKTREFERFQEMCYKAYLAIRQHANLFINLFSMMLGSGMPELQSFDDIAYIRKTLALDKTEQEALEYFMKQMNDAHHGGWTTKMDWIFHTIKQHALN
PI3K-α, sequence (P27986 whole entry partner, species assumed): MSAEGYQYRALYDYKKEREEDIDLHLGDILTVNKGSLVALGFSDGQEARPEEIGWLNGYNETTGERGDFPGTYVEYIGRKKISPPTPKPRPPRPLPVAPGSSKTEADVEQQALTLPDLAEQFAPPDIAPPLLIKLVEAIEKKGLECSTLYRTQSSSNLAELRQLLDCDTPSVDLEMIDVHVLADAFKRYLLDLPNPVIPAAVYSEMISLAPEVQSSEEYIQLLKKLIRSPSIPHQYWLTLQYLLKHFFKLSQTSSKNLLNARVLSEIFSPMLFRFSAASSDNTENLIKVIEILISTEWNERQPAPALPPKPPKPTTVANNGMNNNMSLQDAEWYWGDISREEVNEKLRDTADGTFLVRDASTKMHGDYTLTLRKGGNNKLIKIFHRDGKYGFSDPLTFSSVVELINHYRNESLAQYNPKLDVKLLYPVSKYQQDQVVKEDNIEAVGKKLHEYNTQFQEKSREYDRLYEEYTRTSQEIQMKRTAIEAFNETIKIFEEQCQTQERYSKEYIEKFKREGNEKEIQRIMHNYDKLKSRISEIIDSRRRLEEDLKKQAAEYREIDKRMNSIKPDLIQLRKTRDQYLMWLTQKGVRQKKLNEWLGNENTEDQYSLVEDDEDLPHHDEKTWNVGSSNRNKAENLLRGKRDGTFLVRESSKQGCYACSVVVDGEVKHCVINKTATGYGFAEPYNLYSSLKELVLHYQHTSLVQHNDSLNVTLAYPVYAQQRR
PI3K-γ, sequence (P48736 whole entry, species assumed): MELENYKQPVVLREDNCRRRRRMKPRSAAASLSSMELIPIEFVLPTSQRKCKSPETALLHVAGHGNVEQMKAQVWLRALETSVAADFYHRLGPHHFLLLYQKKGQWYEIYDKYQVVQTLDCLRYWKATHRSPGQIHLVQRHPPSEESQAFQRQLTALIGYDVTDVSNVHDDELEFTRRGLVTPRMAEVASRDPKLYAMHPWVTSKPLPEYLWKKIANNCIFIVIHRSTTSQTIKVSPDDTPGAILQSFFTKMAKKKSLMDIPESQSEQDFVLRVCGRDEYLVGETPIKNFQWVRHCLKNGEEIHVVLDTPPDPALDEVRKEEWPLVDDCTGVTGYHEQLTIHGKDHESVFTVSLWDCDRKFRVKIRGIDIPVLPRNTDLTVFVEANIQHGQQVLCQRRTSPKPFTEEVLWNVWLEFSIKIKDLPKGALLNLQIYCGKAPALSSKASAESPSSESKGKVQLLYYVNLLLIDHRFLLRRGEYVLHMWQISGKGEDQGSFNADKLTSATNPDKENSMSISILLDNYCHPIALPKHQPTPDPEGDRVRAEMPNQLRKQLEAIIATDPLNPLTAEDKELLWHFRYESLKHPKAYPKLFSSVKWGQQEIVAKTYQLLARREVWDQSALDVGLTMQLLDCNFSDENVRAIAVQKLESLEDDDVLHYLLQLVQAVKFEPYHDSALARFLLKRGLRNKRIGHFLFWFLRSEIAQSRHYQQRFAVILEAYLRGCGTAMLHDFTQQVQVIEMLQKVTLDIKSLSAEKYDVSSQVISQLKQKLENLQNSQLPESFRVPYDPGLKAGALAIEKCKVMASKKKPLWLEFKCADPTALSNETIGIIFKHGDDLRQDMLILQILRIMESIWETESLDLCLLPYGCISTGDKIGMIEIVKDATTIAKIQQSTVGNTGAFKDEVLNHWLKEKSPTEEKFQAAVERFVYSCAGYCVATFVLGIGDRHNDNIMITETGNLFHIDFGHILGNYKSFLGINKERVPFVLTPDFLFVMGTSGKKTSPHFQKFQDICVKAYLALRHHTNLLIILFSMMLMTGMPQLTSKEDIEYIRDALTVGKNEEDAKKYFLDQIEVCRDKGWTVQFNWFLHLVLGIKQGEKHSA

| IC50 (PI3K-α; read-out: IC50 PI3Kα) [nM] | IC50 (Human mTOR (FLAG-TOR)) | Compound | IC50 (PI3K-γ; read-out: IC50 PI3Kγ) [nM] | other results |
| --- | --- | --- | --- | --- |
| 91.5 | 625 nM | CC(C)N1CCCN(c2nc(-c3ccc(NC(=O)Nc4ccc(C(=O)O)cc4)cc3)nc(N3CCOCC3)n2)CC1 [Example 655, 4-{[(4-{4-[4-(1-methylethyl)-1,4-diazepan-1-yl]-6-morpholin-4-yl-1,3,5-triazin-2-yl}phenyl)carbamoyl]amino}benzoic acid] | 746 | – |
| 1460 | 1500 nM | CNCCNC(=O)Nc1ccc(-c2nc(OC3CCOCC3)nc(N3CCOCC3)n2)cc1 [Example 64, 1-[2-(methylamino)ethyl]-3-{4-[4-morpholin-4-yl-6-(tetrahydro-2H-pyran-4-yloxy)-1,3,5-triazin-2-yl]phenyl}urea] | 1190 | – |
| 764 | 500 nM and 470 nM | CS(=O)(=O)N1CC2CN(c3nc(-c4ccc(NC(=O)Nc5ccncc5)cc4)nc(N4CCOCC4)n3)CC(C1)O2 [Example 293, 1-(4-{4-[7-(methylsulfonyl)-9-oxa-3,7-diazabicyclo[3.3.1]non-3-yl]-6-morpholin-4-yl-1,3,5-triazin-2-yl}phenyl)-3-pyridin-4-yl urea] | 533 | – |
| 378 | – | Cc1nc(-c2ccc(NC(=O)Nc3ccc(C(=O)NC4CCN(C)CC4)cc3)cc2)nc(N2CCOCC2)n1 [Example 164, 4-({[4-(4-methyl-6-morpholin-4-yl-1,3,5-triazin-2-yl)phenyl]carbamoyl}amino)-N-(1-methylpiperidin-4-yl)benzamide] | 1380 | – |
| 3440 | – | CN1CCN(c2ccc(NC(=O)Nc3ccc(-c4nc(N5C[C@@H]6C[C@H]5CO6)nc(N5C[C@@H]6C[C@H]5CO6)n4)cc3)cc2)CC1 [Example 312, 1-{4-[4,6-di-(1S,4S)-2-oxa-5-azabicyclo[2.2.1]hept-5-yl-1,3,5-triazin-2-yl]phenyl}-3-[4-(4-methylpiperazin-1-yl)phenyl]urea] | 10000 | – |
| – | > 4000 nM | COc1ccc(NC(=O)Nc2ccc(-c3nc(N4CCOCC4)nc(N4CCOCC4)n3)cc2)c(OC)c1 [Example 7, 1-(2,4-dimethoxyphenyl)-3-[4-(4,6-dimorpholin-4-yl-1,3,5-triazin-2-yl)phenyl]-urea] | – | IC50 (PI3K-α): > 10000 nM |
| 1 | 0.63 nM | CN(C)[C@@H]1CCN(C(=O)c2ccc(NC(=O)Nc3ccc(-c4nc(N5CCOCC5)nc(N5CCOCC5)n4)cc3)cc2)C1 [Example 484, 1-(4-{[(3R)-3-(dimethylamino)pyrrolidin-1-yl]carbonyl}phenyl)-3-[4-(4,6-dimorpholin-4-yl-1,3,5-triazin-2-yl)phenyl]urea] | – | – |
| – | 15 nM and 10 nM | O=C(Nc1ccc(-c2nc(N3CCOCC3)nc(N3CCOCC3)n2)cc1)Nc1ccc(C(O)(C(F)(F)F)C(F)(F)F)cc1 [Example 56, 1-[4-(4,6-dimorpholin-4-yl-1,3,5-triazin-2-yl)phenyl]-3-{4-[2,2,2-trifluoro-1-hydroxy-1-(trifluoromethyl)ethyl]phenyl}urea] | – | – |
| 63 | – | Cc1ccc(-c2nc(-c3ccc(NC(=O)Nc4cccc(C(=O)O)c4)cc3)nc(N3CCOCC3)n2)cc1 [Example 577, 3-[({4-[4-(4-methylphenyl)-6-morpholin-4-yl-1,3,5-triazin-2-yl]phenyl}carbamoyl)amino]benzoic acid] | 104 | – |
| 220 | – | C[C@@H]1COCCN1c1nc(-c2ccc(NC(=O)Nc3ccc(N4CCN(C)CC4)nc3)cc2)nc(C2CCOCC2)n1 [Example 433, (R)-1-(4-(4-(3-methylmorpholino)-6-(tetrahydro-2H-pyran-4-yl)-1,3,5-triazin-2-yl)phenyl)-3-(6-(4-methylpiperazin-1-yl)pyridin-3-yl)urea] | 1510 | – |
| – | 12 nM | Cc1ccc(NC(=O)Nc2ccc(-c3nc(NC4CN(C(=O)OC(C)(C)C)C4)nc(N4CCOCC4)n3)cc2)cc1 [Example 16, tert-butyl 3-{[4-(4-{[(4-methylphenyl)carbamoyl]amino}phenyl)-6-morpholin-4-yl-1,3,5-triazin-2-yl]amino}azetidine-1-carboxylate] | – | IC50 (PI3K-α): > 10000 nM |
| – | – | CC(C)Nc1nc(-c2ccc(NC(=O)Nc3ccc(N4CCN(C)CC4)cc3)cc2)nc(N2C3CCC2COC3)n1 [Example 378, 1-(4-(4-(3-oxa-8-azabicyclo[3.2.1]octan-8-yl)-6-(isopropylamino)-1,3,5-triazin-2-yl)phenyl)-3-(4-(4-methylpiperazin-1-yl)phenyl)urea] | 5380 | – |
| – | – | O=C(Nc1ccc(CO)cc1)Nc1ccc(-c2nc(N3C4CCC3COC4)nc(N3C4CCC3COC4)n2)cc1 [Example 287, 1-[4-(4,6-di-3-oxa-8-azabicyclo[3.2.1]oct-8-yl-1,3,5-triazin-2-yl)phenyl]-3-[4-(hydroxymethyl)phenyl]urea] | 3300 | – |
| 1.4 | 1.25 nM | CN(C)[C@H]1CCN(C(=O)c2ccc(NC(=O)Nc3ccc(-c4nc(N5CCOCC5)nc(N5CCOCC5)n4)cc3)cc2)C1 [Example 485, 1-(4-{[(3S)-3-(dimethylamino)pyrrolidin-1-yl]carbonyl}phenyl)-3-[4-(4,6-dimorpholin-4-yl-1,3,5-triazin-2-yl)phenyl]urea] | – | – |
| – | – | CCN1CCN(c2ccc(NC(=O)Nc3ccc(-c4nc(N5C6CCC5COC6)nc(N5CCOC[C@H]5C)n4)cc3)cc2)CC1 [Example 440, 1-(4-(4-(3-oxa-8-azabicyclo[3.2.1]octan-8-yl)-6-((R)-3-methylmorpholino)-1,3,5-triazin-2-yl)phenyl)-3-(4-(4-ethylpiperazin-1-yl)phenyl)urea] | – | IC50 (PI3K-γ): > 10000 nM |
| – | – | CC(C)N1CCN(C(=O)c2ccc(NC(=O)Nc3ccc(-c4nc(N5C6CCC5COC6)nc(N5CCOC[C@@H]5C)n4)cc3)cc2)CC1 [Example 830, 1-(4-{4-[(3S)-3-methylmorpholin-4-yl]-6-(3-oxa-8-azabicyclo[3.2.1]oct-8-yl)-1,3,5-triazin-2-yl}phenyl)-3-(4-{[4-(propan-2-yl)piperazin-1-yl]carbonyl}phenyl)urea] | 70.5 | – |
| – | – | CN1CCN(c2ccc(NC(=O)Nc3ccc(-c4nc(C5=CCOCC5)nc(N5C6CCC5COC6)n4)cc3)cc2)CC1 [Example 405, 1-(4-(4-(3-oxa-8-azabicyclo[3.2.1]octan-8-yl)-6-(3,6-dihydro-2H-pyran-4-yl)-1,3,5-triazin-2-yl)phenyl)-3-(4-(4-methylpiperazin-1-yl)phenyl)urea] | 193 | – |
| – | – | CC(C)N1CCN(C(=O)c2ccc(NC(=O)Nc3ccc(-c4nc(N5C6CCC5COC6)nc(N5CCOC[C@H]5C)n4)cc3)cc2)CC1 [Example 445, 1-(4-(4-(3-oxa-8-azabicyclo[3.2.1]octan-8-yl)-6-((R)-3-methylmorpholino)-1,3,5-triazin-2-yl)phenyl)-3-(4-(4-isopropylpiperazine-1-carbonyl)phenyl)urea] | 1000 | – |
| – | – | C[C@@H]1COCCN1c1nc(-c2ccc(NC(=O)Nc3ccc(OCCN(C)C)cc3)cc2)nc(N2C3CCC2COC3)n1 [Example 419, 1-(4-(4-(3-oxa-8-azabicyclo[3.2.1]octan-8-yl)-6-((R)-3-methylmorpholino)-1,3,5-triazin-2-yl)phenyl)-3-(4-(2-(dimethylamino)ethoxy)phenyl)urea] | 4270 | – |
| 6 | – | O=C(Nc1ccc(C(=O)N2CCC(N3CCCC3)CC2)cc1)Nc1ccc(-c2nc(N3CCOCC3)nc(N3C[C@@H]4C[C@H]3CO4)n2)cc1 [Example 210, 1-(4-{4-morpholin-4-yl-6-[(1S,4S)-2-oxa-5-azabicyclo[2.2.1]hept-5-yl]-1,3,5-triazin-2-yl}phenyl)-3-{4-[(4-pyrrolidin-1-ylpiperidin-1-yl)carbonyl]phenyl}urea] | 31 | – |
| – | 0.43 nM | CC(C)N1CCN(C(=O)c2ccc(NC(=O)Nc3ccc(-c4nc(C5CCOCC5)nc(N5CCOCC5)n4)cc3)cc2)CC1 [Example 523, 1-(4-{[4-(1-methylethyl)piperazin-1-yl]carbonyl}phenyl)-3-{4-[4-morpholin-4-yl-6-(tetrahydro-2H-pyran-4-yl)-1,3,5-triazin-2-yl]phenyl}urea] | – | – |
| 136 | – | O=C(Nc1ccncc1)Nc1ccc(-c2nc(NS(=O)(=O)c3ccccc3)nc(N3CCOCC3)n2)cc1 [Example 781, N-(4-morpholin-4-yl-6-{4-[(pyridin-4-ylcarbamoyl)amino]phenyl}-1,3,5-triazin-2-yl)benzenesulfonamide] | 374 | – |
| – | – | CN1CCN(C(=O)c2ccc(NC(=O)Nc3ccc(-c4nc(C5CCOCC5)nc(N5C6CCC5COC6)n4)cc3)cc2)CC1 [Example 438, 1-(4-(4-(3-oxa-8-azabicyclo[3.2.1]octan-8-yl)-6-(tetrahydro-2H-pyran-4-yl)-1,3,5-triazin-2-yl)phenyl)-3-(4-(4-methylpiperazine-1-carbonyl)phenyl)urea] | 663 | – |

| Compound | IC50 (PI3K-α; read-out: IC50 PI3Kα) [nM] | IC50 (Human mTOR (FLAG-TOR)) | IC50 (PI3K-γ; read-out: IC50 PI3Kγ) [nM] | other results |
| --- | --- | --- | --- | --- |
| 1-(3-{[4-(dimethylamino)piperidin-1-yl]carbonyl}phenyl)-3-{4-[4-(4-methylphenyl)-6-morpholin-4-yl-1,3,5-triazin-2-yl]phenyl}urea [Example 579] | 462 | 120 nM | 658 | – |
| CN(C)[C@H]1CCN(C(=O)c2ccc(NC(=O)Nc3ccc(-c4nc(N5CCOCC5)nc(N5C6CCC5COC6)n4)cc3)cc2)C1 [Example 516, 1-(4-{[(3S)-3-(dimethylamino)pyrrolidin-1-yl]carbonyl}phenyl)-3-{4-[4-morpholin-4-yl-6-(3-oxa-8-azabicyclo[3.2.1]oct-8-yl)-1,3,5-triazin-2-yl]phenyl}urea] | 2.1 | – | 17 | IC50 (PI3K-α; read-out: IC50 PI3Kα, listed as 824): 2 nM; IC50 (PI3K-α; read-out: IC50 PI3Kα, listed as 827): 2.15 nM |
| C[C@H]1COCCN1c1nc(-c2ccc(NC(=O)Nc3ccc(C(=O)N4CCNCC4)cc3)cc2)nc(N2C3CCC2COC3)n1 [Example 838, 1-(4-{4-[(3S)-3-methylmorpholin-4-yl]-6-(3-oxa-8-azabicyclo[3.2.1]oct-8-yl)-1,3,5-triazin-2-yl}phenyl)-3-[4-(piperazin-1-ylcarbonyl)phenyl]urea] | 4 | – | 69.5 | – |
| CNC(=O)Nc1ccc(-c2nc(-c3ccc(NC(=O)Nc4ccc(C(N)=O)cc4)cc3)nc(N3CCOCC3)n2)cc1 [Example 462, 4-({[4-(4-{4-[(methylcarbamoyl)amino]phenyl}-6-morpholin-4-yl-1,3,5-triazin-2-yl)phenyl]carbamoyl}amino) benzamide] | – | < 1 nM | – | – |
